Laboratory results from patent US9169217B2, “Arylalkyl esters of 4-amino-6-(substituted phenyl)-picolinates and 6-amino-2-(substituted phenyl)-pyrimidinecarboxylates and their use as selective herbicides for crops” (Dow AgroSciences LLC, priority 2011, dated 2015).

Experiments:
[1] = system: Cyperus difformis L. (small-flower flatsedge); assay: Postemergence foliar-applied herbicidal activity in direct seeded rice (Example 16); assay type: in vivo; details: post-emergence, 504 h, rice cropping systems, foliar-applied, 8.75 g ae/ha, 21 DAA, may represent multiple trials, read-out: Visual Injury (%) CYPDI
Source text: (§1) Seeds or nutlets of the desired test plant species were planted in a soil matrix prepared by mixing a loam soil (43 percent silt, 19 percent clay, and 38 percent sand, with a pH of about 8.1 and an organic matter content of about 1.5 percent) and river sand in an 80 to 20 ratio. The soil matrix was contained in plastic pots with a surface area of 139.7 cm^2. When required to ensure good germination and healthy plants, a fungicide treatment and/or other chemical or physical treatment was applied. The plants were grown for 10-17 d in a greenhouse with an approximate 14-h photoperiod which was maintained at about 29° C. during the day and 26° C. during the night. Nutrients and water were added on a regular basis and supplemental lighting was provided with overhead metal halide 1000-Watt lamps as necessary. The plants were employed for testing when they reached the second or third true leaf stage.
(§2) Treatments consisted of esters of compounds 1-4, 6-8, 10, 11, 13-16, 20-31, 35, 38, 41 and 42 and A-E. Compound A is methyl 4-amino-3-chloro-6-(4-chloro-3-ethoxy-2-fluorophenyl)-5-fluoropicolinate; compound B is methyl 4-amino-3-chloro-6-(4-cyclopropylphenyl)-5-fluoropicolinate; compound C is methyl 4-amino-3-chloro-6-(2,4-dichloro-3-methoxyphenyl)picolinate; compound D is methyl 6-amino-2-(4-chloro-2-fluoro-3-methoxyphenyl)-5-vinylpyrimidine-4-carboxylate; and compound E is methyl 4-amino-3-chloro-6-(4-chloro-2-fluoro-3-methoxyphenyl)-5-fluoropicolinate. Weighed amounts of technical grade compounds were placed in 25 mL glass vials and dissolved in a volume of 97:3 v/v acetone-DMSO to obtain 12× stock solutions. […] The concentrated stock solutions were added to the spray solutions so that the final acetone and DMSO concentrations were 16.2% and 0.5%, respectively. Spray solutions were diluted to the appropriate final concentrations with the addition of 10 mL of an aqueous mixture of 1.5% (v/v) Agri-dex crop oil concentrate. Generally, multiple concentrations of spray solutions were formulated and tested utilizing the same stock solution. The final spray solutions contained 1.25% (v/v) Agri-dex crop oil concentrate. Compound requirements are based upon a 12 mL application volume at a rate of 187 L/ha. Spray solutions were applied to the plant material with an overhead Mandel track sprayer equipped with 8002E nozzles calibrated to deliver 187 L/ha over an application area of 0.503 square meters (m^2) at a spray height of 18 inches (43 cm) above average plant canopy height. Control plants were sprayed in the same manner with the solvent blank.
(§3) The treated plants and control plants were placed in a greenhouse as described above and watered by sub-irrigation to prevent wash-off of the test compounds. After 3 weeks, the condition of the test plants, compared with that of the untreated plants, was determined visually and scored on a scale of 0 to 100 percent where 0 corresponds to no injury and 100 corresponds to complete kill.
(§4) By applying the well-accepted probit analysis as described by J. Berkson in Journal of the American Statistical […], 48, 565 (1953) and by D. Finney in “Probit Analysis” Cambridge University Press (1952), the data gathered can be used to calculate GR50 and GR80 values, which are defined as growth reduction factors that correspond to the effective dose of herbicide required to kill or control 50 percent or 80 percent, respectively, of a target plant.

[2] = system: Scirpus juncoides ROXB. (Japanese bulrush); assay: as above; assay type: in vivo; details: Schoenoplectiella juncoides, post-emergence, 504 h; rice cropping systems, foliar-applied, 8.75 g ae/ha, 21 DAA; may represent multiple trials; read-out: Visual Injury (%) SCPJU
Source text: as §1, §2, §3, §4

[3] = system: Echinochloa crus-galli (L.) P.BEAUV. (barnyardgrass); assay: In-water applied herbicidal activity in transplanted paddy rice (Example 17); assay type: in vivo; details: Echinochloa crus-galli, 504 h, rice cropping systems, in-water applied (paddy), 21 DAA, may represent multiple trials, read-out: Visual Injury (%) ECHCG; for pest or weed control at 17.5 g/ha: 17.5 g ae/ha; for pest or weed control at 35 g/ha: 35 g ae/ha
Procedure: (§5) Weed seeds or nutlets of the desired test plant species were planted in puddled soil (mud) prepared by mixing a non-sterilized mineral soil (28 percent silt, 18 percent clay, and 54 percent sand, with a pH of about 7.3 to 7.8 and an organic matter content of about 1.0 percent) and water at a ratio of 100 kilograms (kg) of soil to 19 liters (L) of water. The prepared mud was dispensed in 250 mL aliquots into 480 mL non-perforated plastic pots with a surface area of 91.6 cm^2 leaving a headspace of 3 cm in each pot. Rice seeds were planted in Sun Gro MetroMix 306 planting mixture, which typically has a pH of 6.0 to 6.8 and an organic matter content of about 30 percent, in plastic plug trays. Seedlings at the second or third leaf stage of growth were transplanted into 650 mL of mud contained in 960 mL non-perforated plastic pots with a surface area of 91.6 cm^2 four days prior to herbicide application. The paddy was created by filling the 3 cm headspace of the pots with water. When required to ensure good germination and healthy plants, a fungicide treatment and/or other chemical or physical treatment was applied. The plants were grown for 4-14 d in a greenhouse with an approximate 14-h photoperiod which was maintained at about 29° C. during the day and 26° C. during the night. Nutrients were added as Osmocote (17:6:10, Nitrogen:Phosphorus:Potassium (N:P:K)+minor nutrients) at 2 grams (g) per cup. Water was added on a regular basis to maintain the paddy flood, and supplemental lighting was provided with overhead metal halide 1000-Watt lamps as necessary. The plants were employed for testing when they reached the second or third true leaf stage.
(§6) Treatments consisted of esters of compounds 1-4, 6-33, 35-39, 41 and 42 and A-G. Compound A is methyl 4-amino-3-chloro-6-(4-chloro-3-ethoxy-2-fluorophenyl)-5-fluoropicolinate; compound B is methyl 4-amino-3-chloro-6-(4-cyclopropylphenyl)-5-fluoropicolinate; compound C is methyl 4-amino-3-chloro-6-(2,4-dichloro-3-methoxyphenyl)picolinate; compound D is methyl 6-amino-2-(4-chloro-2-fluoro-3-methoxyphenyl)-5-vinylpyrimidine-4-carboxylate; compound E is methyl 4-amino-3-chloro-6-(4-chloro-2-fluoro-3-methoxyphenyl)-5-fluoropicolinate; compound F is methyl 6-amino-2-(4-chloro-2-fluoro-3-methoxyphenyl)-5-methoxypyrimidine-4-carboxylate; and compound G is methyl 4-amino-3-chloro-6-(4-chloro-2-fluoro-3-methoxyphenyl)picolinate. Weighed amounts of technical grade compounds were placed in individual 120 mL glass vials and were dissolved in 20 mL of acetone to obtain concentrated stock solutions. […] The concentrated stock solutions obtained were diluted with 20 mL of an aqueous mixture containing 2.5% Agri-dex crop oil concentrate (v/v). The final application solutions contained 1.25% (v/v) Agri-dex crop oil concentrate. Generally, multiple concentrations were tested utilizing the same stock solution. Applications were made by injecting an appropriate amount of the application solution into the aqueous layer of the paddy. Control plants were treated in the same manner with the solvent blank.
as §3, with “water was added as needed” for “watered by sub-irrigation”, “maintain a paddy flood.” for “prevent wash-off of the test compounds.”, “weeks” for “weeks,”
as §4

[4] = system: Scirpus juncoides ROXB. (Japanese bulrush); assay: as above; assay type: in vivo; details: Schoenoplectiella juncoides, 504 h; rice cropping systems, in-water applied (paddy), 17.5 g ae/ha, 21 DAA; may represent multiple trials; read-out: Visual Injury (%) SCPJU
Procedure: as §5, §6
as §3, with “water was added as needed” for “watered by sub-irrigation”, “maintain a paddy flood.” for “prevent wash-off of the test compounds.”, “weeks” for “weeks,”
as §4

[5] = system: Echinochloa crus-galli (L.) P.BEAUV. (barnyardgrass); assay: Postemergence foliar-applied herbicidal activity in direct seeded rice (Example 16); assay type: in vivo; details: rice cropping systems, 8.75 g ae/ha, 21 DAA, may represent multiple trials
Source text: as §1, §2, §3, §4

[6] = system: Echinochloa colonum (L.) LINK (junglerice); assay: as above; assay type: in vivo; details: Echinochloa colona, post-emergence, 504 h, rice cropping systems, 8.75 g ae/ha, 21 DAA, may represent multiple trials, read-out: Visual Injury (%) ECHCO
Source text: as §1, §2, §3, §4

[7] = system: Fimbristylis miliacea (L.) VAHL (globe fringerush); assay: In-water applied herbicidal activity in transplanted paddy rice (Example 17); assay type: in vivo; details: rice cropping systems, in-water applied (paddy), 35 g ae/ha, 21 DAA; may represent multiple trials
Procedure: as §5, §6
as §3, with “water was added as needed” for “watered by sub-irrigation”, “maintain a paddy flood.” for “prevent wash-off of the test compounds.”, “weeks” for “weeks,”
as §4

SMILES	melting point	pest or weed control at 8.75 g/ha [1]	pest or weed control at 8.75 g/ha [2]	pest or weed control at 17.5 g/ha [3]	pest or weed control at 17.5 g/ha [4]	Visual Injury (%) ECHCG [5]	pest or weed control at 8.75 g/ha [6]	pest or weed control at 35 g/ha [3]	Visual Injury (%) FIMMI [7]
COc1c(Cl)ccc(-c2nc(C(=O)OCc3ccccc3C(F)(F)F)c(Cl)c(N)c2F)c1F [Compound 26]	133 to 134 °C	100%	100%	20%	100%				
COC(=O)c1cccc(COC(=O)c2nc(-c3ccc(Cl)c(OC)c3F)c(F)c(N)c2Cl)c1 [Compound 29]	144 to 145 °C	100%	100%	10%	60%				
COc1c(Cl)ccc(-c2nc(C(=O)OCc3ccc(Cl)cc3C)c(Cl)c(N)c2F)c1F [Compound 30]	167 to 168 °C	99%	0%	50%	85%				
C=Cc1c(N)nc(-c2ccc(Cl)c(OC)c2F)nc1C(=O)OCc1ccccc1 [Compound 35, benzyl 6-amino-2-(4-chloro-2-fluoro-3-methoxyphenyl)-5-vinylpyrimidine-4-carboxylate]	119 to 121 °C					95%	90%	76%	
COc1ccc(COC(=O)c2nc(-c3ccc(Cl)c(OC)c3F)cc(N)c2Cl)cc1 [Compound 36, 4-methoxybenzyl 4-amino-3-chloro-6-(4-chloro-2-fluoro-3-methoxyphenyl)picolinate]									100%
C=Cc1c(N)nc(-c2ccc(Cl)c(OC)c2F)nc1C(=O)OC [D, methyl 6-amino-2-(4-chloro-2-fluoro-3-methoxyphenyl)-5-vinylpyrimidine-4-carboxylate, reference compound]						87%	79%	54%	

Now from value to compound, other results behind:

melting point	SMILES	pest or weed control at 8.75 g/ha [1]	pest or weed control at 8.75 g/ha [2]	pest or weed control at 17.5 g/ha [3]	pest or weed control at 17.5 g/ha [4]	Visual Injury (%) ECHCG [5]	pest or weed control at 8.75 g/ha [6]	pest or weed control at 35 g/ha [3]	Visual Injury (%) FIMMI [7]
207 to 208 °C	COc1c(Cl)ccc(-c2nc(C(=O)OCc3ccc([N+](=O)[O-])cc3)c(Cl)c(N)c2F)c1F [Compound 21]	100%	100%	10%	80%				
107 to 108 °C	COc1c(Cl)ccc(-c2nc(C(=O)OCCc3ccc(Cl)cc3)c(Cl)c(N)c2F)c1F [Compound 22]	100%	90%	0%	40%				
160 to 161 °C	COc1c(Cl)ccc(-c2nc(C(=O)OCc3cccc(F)c3)c(Cl)c(N)c2F)c1F [Compound 23]	100%	100%	60%	95%				
143 to 144 °C	COc1c(Cl)ccc(-c2nc(C(=O)OCc3ccc(F)cc3)c(Cl)c(N)c2F)c1F [Compound 24]	100%	100%	70%	100%				
169 °C	COc1c(Cl)ccc(-c2nc(C(=O)OCc3ccccc3F)c(Cl)c(N)c2F)c1F [Compound 25]	100%	100%	10%	90%				
75 to 76 °C	COc1c(Cl)ccc(-c2nc(C(=O)OCc3ccc(C(C)C)cc3)c(Cl)c(N)c2F)c1F [Compound 27]	100%	100%	10%	80%				
142 to 143 °C	COc1c(Cl)ccc(-c2nc(C(=O)OCc3ccc4ccccc4c3)c(Cl)c(N)c2F)c1F [Compound 28]	100%	100%	10%	50%				
145 °C	COc1c(Cl)ccc(-c2nc(C(=O)OCc3ccc(SC)cc3)c(Cl)c(N)c2F)c1F [Compound 31]	100%	100%	50%	85%				
